Reference: patent EP3970494A1 (priority 2020, dated 2022)

What was measured:
Assay in all cases: microbe, parasite or virus in culture
Assay type in all cases: cell-based
Septoria tritici = conditions: Zymoseptoria tritici, 168 h
Phytophthora infestans = conditions: 168 h, read-out: Fungal growth at 31 ppm (%) PHYTIN
Fusarium culmorum = conditions: 168 h

| Compound | activity at 31 ppm (Septoria tritici) [%] | activity at 31 ppm (Phytophthora infestans) [%] | activity at 31 ppm (Fusarium culmorum) [%] |
| --- | --- | --- | --- |
| CO/N=C(/C(=O)OC)c1cccc(C)c1CO/N=C(\C)c1cccc(OC)n1 [Example 6] | 7 |  |  |
| CO/N=C(/C(=O)OC)c1cccc(C)c1CO/N=C(\C)c1cc(-c2ccc(F)cc2)sn1 [Example 11, Methyl (2E)-2-[2-[[(E)-1-[5-(4-fluorophenyl)isothiazol-3-yl]ethylideneamino]oxymethyl]-3-methyl-phenyl]-2-methoxyimino-acetate] | 10 |  |  |
| CNC(=O)/C(=N/OC)c1cccc(C)c1CO/N=C(\C)c1cc(-c2ccc(F)cc2)sn1 [Example 12, (2E)-2-[2-[[(E)-1-[5-(4-Fluorophenyl)isothiazol-3-yl]ethylideneamino]oxymethyl]-3-methyl-phenyl]-2-methoxyimino-N-methyl-acetamide] |  | 2 | 11 |
| CO/N=C(/C(=O)OC)c1cccc(C)c1CO/N=C(\C)c1cc(-c2ccc(F)cc2)on1 [Example 14] |  |  | 20 |
| CNC(=O)/C(=N/OC)c1cccc(C)c1CO/N=C(\C)c1cc(-c2ccc(F)cc2)on1 [Example 15] |  | 0 | 20 |
| CO/N=C(/C(=O)OC)c1cccc(C)c1CO/N=C(\C)c1cc(-c2ccc(Cl)cc2)on1 [Example 18] |  |  | 16 |
| CO/N=C(/C(=O)OC)c1cccc(C)c1CO/N=C(\C)c1cc(-c2ccccc2)on1 [Example 21] |  | 5 |  |
| CNC(=O)/C(=N/OC)c1cccc(C)c1CO/N=C(\C)c1cc(-c2cccc(C(F)(F)F)c2)on1 [Example 22, (2E)-2-Methoxyimino-N-methyl-2-[3-methyl-2-[[(E)-1-[5-[3-(trifluoromethyl)phenyl]-isoxazol-3-yl]ethylideneamino]oxymethyl]phenyl]acetamide] |  | 17 |  |
| CNC(=O)/C(=N/OC)c1cccc(C)c1CO/N=C(\C)c1cc(-c2ccccc2)on1 [Example 23] |  | 1 | 5 |
| CO/N=C(/C(=O)OC)c1cccc(C)c1CO/N=C(\C)c1cc(-c2ccccc2)sn1 [Example 36] |  | 10 |  |
| CNC(=O)/C(=N/OC)c1cccc(C)c1CO/N=C(\C)c1cc(-c2cccc(C(F)(F)F)c2)sn1 [Example 39] |  | 8 | 14 |
| CO/N=C(/C(=O)OC)c1cccc(C)c1CO/N=C(\C)c1cc(C(F)(F)F)cc(Cl)n1 [Example 42] |  |  | 10 |
| CNC(=O)/C(=N/OC)c1cccc(C)c1CO/N=C(\C)c1ccnc(C(F)(F)F)c1 [Example 48] |  | 1 | 17 |
| CO/N=C(/C(=O)OC)c1cccc(C)c1CO/N=C(\C)c1cn(C)nc1C(F)F [Example 49] |  | 0 | 17 |
| CNC(=O)/C(=N/OC)c1cccc(C)c1CO/N=C(\C)c1cn(C)nc1C(F)F [Example 50] |  | 0 | 18 |
| CNC(=O)/C(=N/OC)c1cccc(C)c1CO/N=C(\C)c1cn(C)nc1C(F)(F)F [Example 52] |  |  | 12 |
| CNC(=O)/C(=N/OC)c1cccc(C)c1CO/N=C(\C)c1ncc(C(F)(F)F)s1 [Example 53, (2E)-2-Methoxyimino-N-methyl-2-[3-methyl-2-[[(E)-1-[5-(trifluoromethyl)thiazol-2-yl]ethylideneamino]oxymethyl]phenyl]acetamide] |  |  | 21 |
| C#Cc1cnc(/C(C)=N/OCc2c(C)cccc2/C(=N\OC)C(=O)NC)s1 [Example 61] |  | 19 | 11 |
| CNC(=O)/C(=N/OC)c1cccc(C)c1CO/N=C(\C)c1cc(C(F)F)nc(C)n1 [Example 62] |  | 0 | 11 |
| CNC(=O)/C(=N/OC)c1cccc(C)c1CO/N=C(\C)c1cc(C#N)cc(Cl)n1 [Example 63] |  | 0 | 18 |
| CNC(=O)/C(=N/OC)c1cccc(C)c1CO/N=C(\C)c1ccc(C#CC2CC2)nc1 [Example 69] |  | 0 | 11 |
| CO/N=C(/C(=O)OC)c1cccc(C)c1CO/N=C(\C)c1cncc(F)c1 [Example 75] |  | 0 |  |
| CNC(=O)/C(=N/OC)c1cccc(C)c1CO/N=C(\C)c1cncc(F)c1 [Example 76] |  | 0 | 16 |
| CNC(=O)/C(=N/OC)c1cccc(C)c1CO/N=C(\C)c1ncccc1F [Example 77] |  | 0 | 11 |
| CNC(=O)/C(=N/OC)c1cccc(C)c1CO/N=C(\C)c1ncc(-c2ccc(F)cc2)s1 [Example 78, (2E)-2-[2-[[(E)-1-[5-(4-fluorophenyl)thiazol-2-yl]ethylideneamino]oxymethyl]-3-methyl-phenyl]-2-methoxyimino-N-methyl-acetamide] |  | 3 | 16 |
| CO/N=C(/C(=O)OC)c1cccc(C)c1CO/N=C(\C)c1ncc(-c2ccc(F)cc2)s1 [Example 79, Methyl (2E)-2-[2-[[(E)-1-[5-(4-fluorophenyl)thiazol-2-yl]ethylideneamino]oxymethyl]-3-methyl-phenyl]-2-methoxyimino-acetate] |  | 17 | 13 |
| CNC(=O)/C(=N/OC)c1cccc(C)c1CO/N=C(\C)c1cc(C(F)(F)F)cc(C)n1 [Example 80] |  | 0 | 16 |

| Compound | activity at 31 ppm (Septoria tritici) [%] | activity at 31 ppm (Phytophthora infestans) [%] | activity at 31 ppm (Fusarium culmorum) [%] |
| --- | --- | --- | --- |
| CNC(=O)/C(=N/OC)c1cccc(C)c1CO/N=C(\C)c1cccc(C)n1 [Example 81] |  | 0 | 9 |
| CO/N=C(/C(=O)OC)c1cccc(C)c1CO/N=C(\C)c1ccc(Cl)c(C(F)(F)F)c1 [Example 82] |  | 3 | 17 |
| CNC(=O)/C(=N/OC)c1cccc(C)c1CO/N=C(\C)c1cncc(C(F)(F)F)c1 [Example 85, (2E)-2-methoxyimino-N-methyl-2-[3-methyl-2-[[(E)-1-[5-(trifluoromethyl)-3-pyridyl]-ethylideneamino]oxymethyl]phenyl]acetamide] |  | 0 | 16 |
| CNC(=O)/C(=N/OC)c1cccc(C)c1CO/N=C(\C)c1cc(C(F)(F)F)cc(C#N)n1 [Example 86] |  | 0 | 16 |
| CNC(=O)/C(=N/OC)c1cccc(C)c1CO/N=C(\C)c1cncc(C(F)(F)F)n1 [Example 89, (2E)-2-Methoxyimino-N-methyl-2-[3-methyl-2-[[(E)-1-[6-(trifluoromethyl)pyrazin-2-yl]ethylideneamino]oxymethyl]phenyl]acetamide] |  | 0 | 13 |
| CNC(=O)/C(=N/OC)c1cccc(C)c1CO/N=C(\C)c1cc(N2CC(F)(F)C2)ccn1 [Example 90] |  | 0 |  |
| CNC(=O)/C(=N/OC)c1cccc(C)c1CO/N=C(\C)c1ccc(Cl)nn1 [Example 92] |  | 0 | 17 |
| CNC(=O)/C(=N/OC)c1cccc(C)c1CO/N=C(\C)c1nc(C(F)(F)F)cs1 [Example 95] |  |  | 17 |
| CNC(=O)/C(=N/OC)c1cccc(C)c1CO/N=C(\C)c1cnc(C(F)(F)F)cn1 [Example 97, (2E)-2-methoxyimino-N-methyl-2-[3-methyl-2-[[(E)-1-[5-(trifluoromethyl)pyrazin-2-yl]ethylideneamino]oxymethyl]phenyl]acetamide] |  | 0 | 17 |
| CNC(=O)/C(=N/OC)c1cccc(C)c1CO/N=C(\C)c1cc(C(F)(F)F)c(C#N)cn1 [Example 99] |  | 20 |  |
| CNC(=O)/C(=N/OC)c1cccc(C)c1CO/N=C(\C)c1cccc(F)n1 [Example 107] |  | 0 | 16 |
| CNC(=O)/C(=N/OC)c1cccc(C)c1CO/N=C(/c1nccs1)C1CC1 [Example 110] |  | 0 |  |
| CO/N=C(/C(=O)OC)c1cccc(C)c1CO/N=C(\C)c1ccc(C#CC2CC2)cn1 [Example 111] |  | 15 |  |
| CNC(=O)/C(=N/OC)c1cccc(C)c1CO/N=C(\C)c1ccc(C#CC2CC2)cn1 [Example 112] |  | 2 | 21 |
| CNC(=O)/C(=N/OC)c1cccc(C)c1CO/N=C(\C)c1csc(C(F)(F)F)n1 [Example 115] |  | 0 | 13 |
| CO/N=C(/C(=O)OC)c1cccc(C)c1CO/N=C(\C)c1cc(C(F)(F)F)nn1C [Example 117, Methyl (2E)-2-methoxyimino-2-[3-methyl-2-[[(E)-1-[2-methyl-5-(trifluoromethyl)pyrazol-3-yl]ethylideneamino]oxymethyl]phenyl]acetate] |  |  | 18 |
| CO/N=C(/C(=O)OC)c1cccc(C)c1CO/N=C(\C)c1ncc(C(F)(F)F)s1 [Example 123, Methyl (2E)-2-methoxyimino-2-[3-methyl-2-[[(E)-1-[5-(trifluoromethyl)thiazol-2-yl]-ethylideneamino]oxymethyl]phenyl]acetate] |  |  | 17 |
| CO/N=C(/C(=O)OC)c1cccc(C)c1CO/N=C(\C)c1cscn1 [Example 126] |  | 0 |  |
| CNC(=O)/C(=N/OC)c1cccc(C)c1CO/N=C(\C)c1cscn1 [Example 127] |  | 0 |  |
| CO/N=C(/C(=O)OC)c1cccc(C)c1CO/N=C(\C)c1ccccn1 [Example 129] |  | 0 |  |
| CO/N=C(/C(=O)OC)c1cccc(C)c1CO/N=C(\C)c1ccncc1 [Example 130] |  | 0 | 17 |
| CNC(=O)/C(=N/OC)c1cccc(C)c1CO/N=C(\C)c1ccncc1 [Example 134] |  | 0 | 20 |
| CNC(=O)/C(=N/OC)c1cccc(C)c1CO/N=C(\C)c1cccnc1 [Example 135] |  | 0 | 19 |
| C=Cc1cnc(/C(C)=N/OCc2c(C)cccc2/C(=N\OC)C(=O)NC)s1 [Example 144] |  |  | 14 |
| CNC(=O)/C(=N/OC)c1cccc(C)c1CO/N=C(/c1nccs1)C(F)F [Example 154] |  |  | 14 |
| CO/N=C(/C(=O)OC)c1cccc(C)c1CO/N=C(\C)c1cnccc1C(F)(F)F [Example 155] |  |  | 18 |
